According to patent publication US7915272B2 (priority 2006, dated 2011):
Structures can show the parent of a compound that is named as a salt.

Molecular target: α7-subtype of nicotinic receptors (Rattus norvegicus, UniProt Q05941)
Experiment: biochemical
Format: binding

α7-subtype of nicotinic receptors, sequence (Q05941 23-502): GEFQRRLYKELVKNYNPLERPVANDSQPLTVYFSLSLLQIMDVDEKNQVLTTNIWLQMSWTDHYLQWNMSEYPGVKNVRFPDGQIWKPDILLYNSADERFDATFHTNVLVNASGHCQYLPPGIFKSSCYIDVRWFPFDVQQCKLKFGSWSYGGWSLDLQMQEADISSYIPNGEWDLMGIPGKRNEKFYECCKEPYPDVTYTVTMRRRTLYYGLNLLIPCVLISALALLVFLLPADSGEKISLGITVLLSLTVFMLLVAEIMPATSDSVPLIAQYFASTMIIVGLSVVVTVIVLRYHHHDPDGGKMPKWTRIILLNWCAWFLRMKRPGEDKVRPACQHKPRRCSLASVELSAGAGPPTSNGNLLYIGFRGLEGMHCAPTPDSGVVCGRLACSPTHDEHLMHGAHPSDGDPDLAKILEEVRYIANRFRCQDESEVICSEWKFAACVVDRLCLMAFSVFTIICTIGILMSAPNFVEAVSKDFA

O=C(Nc1cnc(N2CCN3CCC2CC3)nc1)c1ccccc1F [Compound 1, N-[2-(1,4-Diaza-bicyclo[3.2.2]non-4-yl)-pyrimidin-5-yl]-2-fluoro-benzamide hydrochloric acid salt]
IC50: < 100 nM
